IC50 data for eight compounds are collected here from BindingDB's records for doi:10.1016/j.bmcl.2008.10.113 (Ucb Pharma, 2008).

In the assay the target is Bcl-xL. Briefly: Inhibition of GST fused Bcl-xL binding to biotinylated 16 mer Bak-BH3 peptide by HTRF-LANCE assay.
In turn, `Cc1c(Br)c(C(=O)N(c2ccccc2)c2ccccc2)nn1-c1ccccc1C(=O)N1Cc2ccccc2C[C@H]1CO` [4-bromo-1-(2-((S)-3-(hydroxymethyl)-1,2,3,4-tetrahydroisoquinoline-2-carbonyl)phenyl)-5-methyl-N,N-diphenyl-1H-pyrazole-3-carboxamide] gave a half-maximal inhibitory concentration (IC50) of 2.41 µM. In the case of `COC[C@@H]1Cc2ccccc2CN1C(=O)c1ccccc1-n1nc(C(=O)N(c2ccccc2)c2ccccc2)cc1C` [1-(2-((S)-3-(methoxymethyl)-1,2,3,4-tetrahydroisoquinoline-2-carbonyl)phenyl)-5-methyl-N,N-diphenyl-1H-pyrazole-3-carboxamide] it was 5.57 µM; in that of `Cc1cc(C(=O)N(c2ccccc2)c2ccccc2)nn1-c1ccccc1C(=O)N1Cc2ccccc2C[C@H]1CN` [1-(2-((S)-3-(aminomethyl)-1,2,3,4-tetrahydroisoquinoline-2-carbonyl)phenyl)-5-methyl-N,N-diphenyl-1H-pyrazole-3-carboxamide], 11.4 µM. In the case of `CCOC(=O)[C@@H]1Cc2ccccc2CN1C(=O)c1ccccc1-n1nc(C(=O)N(c2ccccc2)c2ccccc2)cc1C` [(3S)-ethyl 2-(2-(3-(diphenylcarbamoyl)-5-methyl-1H-pyrazol-1-yl)benzoyl)-1,2,3,4-tetrahydroisoquinoline-3-carboxylate] it was 18 µM.

Compound `Cc1c(Cl)c(C(=O)N(c2ccccc2)c2ccccc2)nn1-c1ccccc1C(=O)N1Cc2ccccc2C[C@H]1CO` [4-chloro-1-(2-((S)-3-(hydroxymethyl)-1,2,3,4-tetrahydroisoquinoline-2-carbonyl)phenyl)-5-methyl-N,N-diphenyl-1H-pyrazole-3-carboxamide] showed an IC50 of 2.28 µM. With `CNC[C@@H]1Cc2ccccc2CN1C(=O)c1ccccc1-n1nc(C(=O)N(c2ccccc2)c2ccccc2)cc1C` [5-methyl-1-(2-((S)-3-((methylamino)methyl)-1,2,3,4-tetrahydroisoquinoline-2-carbonyl)phenyl)-N,N-diphenyl-1H-pyrazole-3-carboxamide], the IC50 came to 12.6 µM. With `Cc1cc(C(=O)N(c2ccccc2)c2ccccc2)nn1-c1ccccc1C(=O)N1Cc2ccccc2C[C@H]1CN(C)C` [1-(2-((S)-3-((dimethylamino)methyl)-1,2,3,4-tetrahydroisoquinoline-2-carbonyl)phenyl)-5-methyl-N,N-diphenyl-1H-pyrazole-3-carboxamide], the IC50 amounted to 6.79 µM. As for `CC(=O)NC[C@@H]1Cc2ccccc2CN1C(=O)c1ccccc1-n1nc(C(=O)N(c2ccccc2)c2ccccc2)cc1C` [1-(2-((S)-3-(acetamidomethyl)-1,2,3,4-tetrahydroisoquinoline-2-carbonyl)phenyl)-5-methyl-N,N-diphenyl-1H-pyrazole-3-carboxamide], the figure is 9.69 µM.
